In US20260027083A1, “USE OF PPAR AGONIST FOR IMPROVEMENT OF ENERGY METABOLISM” (NOVMETAPHARMA CO., LTD., priority 2022, published 2026):

Key:
PPARβ/δ = target: T1, PPARβ/δ (Homo sapiens, UniProt Q03181); test: Gal4 trans-activated luciferase reporter assay, PPARβ/δ-LBD, HEK293; format: cell-based; details: HEK293, drug treatment 24 hours, FIG. 1
T1 construct: three types of pcDNA5-GAL4 and pGALRE-luc containing PPARα-LBD, PPARβ/δ-LBD, or PPARγ-LBD; GAL4 (fusion partner from vector pcDNA5-GAL4); expressed in transfected cells; host or cells: HEK293
T1 sequence (Q03181 211-439 limits assumed): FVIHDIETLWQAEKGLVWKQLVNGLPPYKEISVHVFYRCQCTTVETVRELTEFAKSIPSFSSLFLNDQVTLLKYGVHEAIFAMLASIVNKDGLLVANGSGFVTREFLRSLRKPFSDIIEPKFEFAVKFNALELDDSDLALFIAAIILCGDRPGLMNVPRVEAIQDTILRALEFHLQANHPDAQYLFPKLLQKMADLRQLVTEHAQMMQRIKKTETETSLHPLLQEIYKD
Protocol: (§1) A plasmid was transformed into E. coli (DE3, Rosetta) and transfected into HEK293 cells and used. Referring to known literatures such as Kanno, Y. & Inouye, Y. J Toxicol Sci 35, 515-525 (2010), Zhao, S. et al. J Nat Prod 79, 879-885 (2016), etc., luciferase assay was performed on three types of pcDNA5-GAL4 and pGALRE-luc containing PPARα-LBD, PPARβ/δ-LBD, or PPARγ-LBD. pProEX-PPAR and pET-28a were used for purification of His-tagged recombinant hPPAR-LBD protein.
(§2) A HEK293 cell line was cultured in Dulbecco's Modified Eagle Medium (DMEM) containing 10% Fetal Bovine Serum (FBS) and 1% penicillin-streptomycin (P/S). […]
(§3) Transfected HEK293 cells were treated with a drug and after 24 hours, the cells were collected, resuspended in a luciferase lysis buffer (Promega, Madison, Wisconsin, USA), and incubated on ice for 10 minutes. […] Next, Firefly Luciferase (Fluc) and Renilla Luciferase (Rluc) activities were measured using the Dual Luciferase Reporter Assay System (Promega, Madison, Wisconsin, USA). […]
(§4) To confirm whether a compound represented by Chemical Formula 1 was a PPAR agonist, Gal4 trans-activated luciferase assay was performed. Specifically, HEK293 cells were transfected with the Gal4-luciferase reporter systems of PPARα, PPARβ/δ, and PPARγ, respectively, harvested after drug treatment for 24 hours, and then analyzed by Dual-Luciferase assay. […]

PPARγ = target: T2, PPARγ (Homo sapiens, UniProt P37231); test: Gal4 trans-activated luciferase reporter assay, PPARγ-LBD, HEK293; format: cell-based; details: HEK293, drug treatment 24 hours, FIG. 1
T2 construct: three types of pcDNA5-GAL4 and pGALRE-luc containing PPARα-LBD, PPARβ/δ-LBD, or PPARγ-LBD; GAL4 (fusion partner from vector pcDNA5-GAL4); expressed in transfected cells; host or cells: HEK293
T2 sequence (P37231 238-503 limits assumed): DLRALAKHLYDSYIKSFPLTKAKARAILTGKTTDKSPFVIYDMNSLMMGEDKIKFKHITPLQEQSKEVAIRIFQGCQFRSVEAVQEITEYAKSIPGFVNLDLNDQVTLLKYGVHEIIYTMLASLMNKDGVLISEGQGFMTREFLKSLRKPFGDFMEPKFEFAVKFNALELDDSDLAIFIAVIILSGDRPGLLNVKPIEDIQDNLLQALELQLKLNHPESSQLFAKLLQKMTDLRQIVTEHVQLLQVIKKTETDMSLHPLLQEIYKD
Protocol: as §1, §2, §3, §4

high-fat diet mice [1] = test: Intraperitoneal glucose tolerance test (IP-GTT) in high-fat diet mice; format: in vivo, C57BL/6J mice; details: 5 mg/kg/day oral, 60% HFD, glucose 2 g/kg i.p. after 16 h fasting, FIG. 10
Protocol: (§5) The care and use of experimental animals were carried out with the approval of the Institutional Animal Care and Use Committee of Pohang University of Science and Technology. C57BL/6J mice were purchased from Japan SLC, Inc. 50 four-week-old male C57/BL/6J mice were acclimated for 2 weeks. The mice were randomly divided and orally administered with vehicle or 5 mg/kg/day of D6 or WY14643 for 13 weeks (oral gavage), and obesity was induced by a 60% high-fat diet (#D12492, Research diets, NJ, USA). Body weights and food intakes were measured weekly from 6 weeks of age, and after 16 weeks of age, adipose tissue and muscle volumes were measured using a Trimodality imaging system.
A glucose tolerance test (GTT) was performed on mice after 16 weeks of age after fasting for 16 hours and intraperitoneal glucose administration at 2 g/kg body weight. The blood glucose levels were measured at 0, 15, 30, 45, 60, 90, and 120 minutes after tail vein injection.
(§6) To confirm a metabolic disease inhibitory effect of the compound represented by Chemical Formula 1 through animal experiments, mice were acclimated for 2 weeks, and then obesity was induced by feeding a 60% high fat diet (HFD) and orally administered with vehicle or 5 mg/kg/day of the compound represented by Chemical Formula 1 (D6) or WY14643 for 13 weeks. […]

high-fat diet mice [2] = test: High-fat diet mice: micro-CT adipose tissue volume; format: in vivo, C57BL/6J mice; details: 5 mg/kg/day oral, 60% HFD, vs control group, FIGS. 7 and 8
Protocol: as §5
(§7) To confirm a metabolic disease inhibitory effect of the compound represented by Chemical Formula 1 through animal experiments, mice were acclimated for 2 weeks, and then obesity was induced by feeding a 60% high fat diet (HFD) and orally administered with vehicle or 5 mg/kg/day of the compound represented by Chemical Formula 1 (D6) or WY14643 for 13 weeks. Experiments such as IP-GTT, IP-ITT, and micro-CT were performed at the week 10 of drug administration (FIG. 5).

high-fat diet mice [3] = test: Intraperitoneal insulin tolerance test (IP-ITT) in high-fat diet mice; format: in vivo, C57BL/6J mice; details: 5 mg/kg/day oral, 60% HFD, insulin 0.75 U/kg i.p. after 3 h fasting, FIG. 11
Protocol: as §5
An insulin tolerance test (ITT) was performed on mice after 17 weeks of age after fasting for 3 hours and intraperitoneal insulin administration at 0.75 U/kg body weight. The blood glucose levels were measured at 0, 15, 30, 45, 60 and 90 minutes after tail vein injection.
as §6

high-fat diet mice [4] = test: High-fat diet mice: organ weights; format: in vivo, C57BL/6J mice; details: 5 mg/kg/day oral, 60% HFD, vs HFD-V, FIG. 9
Protocol: as §5, §7

## COc1ccc(-c2cc(=O)oc3c(C)c(OC(=O)[C@H](Cc4c[nH]c5ccccc45)NC(=O)OC(C)(C)C)ccc23)cc1 [Chemical Formula 1, [4-(4-methoxyphenyl)-8-methyl-2-oxochromen-7-yl] (2S)-3-(1H-indol-3-yl)-2-[(2-methylpropan-2-yl)oxycarbonylamino]propanoate]
PPARβ/δ
  relative luciferase activity (Fluc to Rluc) for PPARβ/δ: dose-dependently increased
PPARγ
  relative luciferase activity (Fluc to Rluc) for PPARγ: dose-dependently increased
high-fat diet mice [1]
  glucose tolerance (IP-GTT): improved
high-fat diet mice [2]
  volume of adipose tissue (micro-CT): significantly reduced
high-fat diet mice [3]
  insulin resistance (IP-ITT): improved
high-fat diet mice [4]
  epididymal white adipose tissue (eWAT) weight: reduced
  liver weight: reduced
